In patent publication US7033593B2, “Immunogen comprising an HIV envelope protein, a ligand and H2 peptide” (priority 2000, dated 2006):
“Also recorded” adds a separate entry of the source. Where two headings read alike, the source gives them in different places.

What was measured:
cleaved HIV 89.6 gp140 = cleaved HIV 89.6 gp140 (Human immunodeficiency virus type 1 group M subtype B, UniProt Q73372); type: binding; conditions: no sCD4
[1] = system: sCD4-gp140 (HIV 89.6 gp140); assay: SPR binding of HR-2 peptides to sCD4-gp140 complex
Experimental: SPR biosensor measurements were determined on a BIACORE 3000 (BIACORE Inc., Uppsala, Sweden) instrument. […] Binding of proteins and peptides was monitored in real-time at 25° C. and with a continuous flow of PBS, pH 7.4 at […]. Analyte (proteins and peptides) were removed and the sensor surfaces were regenerated following each cycle of binding by single or duplicate […] of regeneration solution (10 mM glycine-HCl, pH 2.5 or 10 mM NaOH).
All analyses were performed using the non-linear fit method of O'Shannessy et al. (O'Shannessy et al, Anal. Biochem. 205:132–136 (1992)) and the BIAevaluation 3.0 software (BIACORE Inc). Rate and equilibrium constants were derived from curve fitting to the Langmuir equation for a simple bimolecular interaction (A+B=AB).
(§1) A blank chip served as an in-line reference surface for subtraction of non-specific binding and bulk responses.
(§2) Surface Plasmon Resonance Biosensor Measurements. SPR biosensor measurements were determined on a BIACORE 3000 (BIACORE Inc., Uppsala, Sweden) instrument. […] A blank in-line reference surface (activated and de-activated for amine coupling) was used to subtract non-specific or bulk responses. Binding of proteins and peptides (biotinylated or free DP178, T649Q26L, DP178-scrambled) was monitored in real-time at 25° C. with a continuous flow of PBS (150 mM NaCl, 0.005% surfactant p20), pH 7.4 at 10–30 μl/min. Analyte (proteins and peptides) were removed and the sensor surfaces were regenerated following each cycle of binding by single or duplicate 5–10 μl pulses of regeneration solution (10 mM glycine-HCl, pH 2.5 or 10 mM NaOH).

[2] = system: T8-gp140 (HIV 89.6 gp140); conditions: SPR
Experimental: FIG. 14A. […] FIGS. 14B and 14C. […] After stabilization of gp140 capture, either the 19b (anti-gp120 V3) or 2F5 (anti-gp41) antibodies (300 μg/ml) were injected to assess the relative amounts of gp120 and gp41 on both surfaces. FIGS. 14D–14F.
as §1, §2

[3] = biological target: T8-gp120 (HIV 89.6 gp120) (Human immunodeficiency virus type 1 group M subtype B, UniProt Q73372); type: binding; conditions: SPR
recombinant ADA gp41 = assay: SPR binding of HR-2 peptide to immobilized recombinant gp41; set-up: species or system HIV ADA
Experimental: FIGS. 16A–16F show constitutive binding of HR-2 peptides to immobilized gp41 and CD4 induced binding to gp140. FIGS. 16A and 16B. Binding of DP178 (12.5 to 100 μg/ml) to immobilized ADA gp41 and CD4-gp140 (FIG. 16B) surfaces. FIGS. 16C and 16D. […] FIGS. 16E and 16F. Scatchard plots of RU vs RU/C for DP178 binding to gp41 (FIG. 16E) and to CD4-gp140 (FIG. 16F). Data are representative of 2 separate experiments.
Binding of HR-2 peptide to recombinant gp41. To directly determine if HR-2 peptides can constitutively bind to purified gp41, recombinant ADA gp41 was immobilized to a sensor surface and the binding of HR-2 peptide, DP178, determined. […] To compare the binding of DP178 HR-2 peptide to recombinant gp41 versus HIV 89.6 gp140-sCD4 complex, the equilibrium binding contants (Keq) of HR-2 binding to both were measured. While the Keq of DP178 binding to recombinant gp41 was weak at 26.7 μM (FIG. 16E), the Keq of DP178 binding to sCD4-gp140 was 10 fold stronger at 1.7 μM (FIG. 16F).

HIV-1 Env 89.6 gp120 = HIV-1 Env 89.6 gp120 (Human immunodeficiency virus type 1 group M subtype B, UniProt Q73372); assay: biochemical; type: binding, HIV-1 89.6
89.6 gp120 = 89.6 gp120 (Human immunodeficiency virus type 1 group M subtype B, UniProt Q73372); type: binding, HIV-1 89.6
From the text: Biotinylated DP178 (FIG. 28A), scrDP178 (FIG. 28B) and scrDP107 (not shown) were attached to a SA-sensor chip through biotin-streptavidin interactions. 200–300 RU of each peptide was attached to individual flow cells of the SA chip. The scrDP107 surface was used as in-line reference subtraction of non-specific and bulk effect. All data shown here were derived after subtraction of signals from this reference surface. […] Data are a representative experiment of 3 performed.
The scrDP107 surface was used as a reference surface for subtracting bulk and non-specific binding. […] Soluble gp120 proteins, mabs or gp120 proteins pre-incubated with mabs were then injected at 20 μl/min for 2–3 min over each of the peptide-SA surface. Binding data was acquired following in-line reference subtraction of binding from the scrDP107 (HR-1) surface.
In these experiments (the “SA-chip assay”), biotinylated HR-2 peptides DP178 and scrDP178 were immobilized on adjacent flow cells of a streptavidin sensor chip (SA chip). […] The non-specific and bulk effect was measured over scrDP107 surface and this surface was used for automated in-line reference subtraction.

HIV-1 89.6 gp120 = HIV-1 89.6 gp120 (Human immunodeficiency virus type 1 group M subtype B, UniProt Q73372); type: binding; conditions: absence of sCD4 or mAb A32, blot 29A lanes 3 and 4
HIV 89.6 gp140 = HIV 89.6 gp140 (Human immunodeficiency virus type 1 group M subtype B, UniProt Q73372); type: binding; conditions: biotinylated peptide
[4] = Scatchard plot, read-out: Keq (equilibrium binding constant)
[5] = A32-induced gp120, two-component dissociation

Sequence of HIV-1 Env 89.6 gp120 (Q73372 32-508): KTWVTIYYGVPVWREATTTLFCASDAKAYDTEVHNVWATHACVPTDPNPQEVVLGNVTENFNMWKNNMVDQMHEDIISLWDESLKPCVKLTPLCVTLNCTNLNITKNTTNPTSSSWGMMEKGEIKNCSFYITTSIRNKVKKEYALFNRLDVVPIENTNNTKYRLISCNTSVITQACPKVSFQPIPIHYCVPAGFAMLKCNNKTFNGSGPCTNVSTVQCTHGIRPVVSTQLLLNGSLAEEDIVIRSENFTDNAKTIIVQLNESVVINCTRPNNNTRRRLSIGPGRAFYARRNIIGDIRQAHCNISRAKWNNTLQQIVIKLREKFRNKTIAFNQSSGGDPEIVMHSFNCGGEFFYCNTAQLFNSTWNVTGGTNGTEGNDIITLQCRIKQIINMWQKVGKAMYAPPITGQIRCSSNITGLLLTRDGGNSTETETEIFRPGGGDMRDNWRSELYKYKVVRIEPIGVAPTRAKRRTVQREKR
Sequence of 89.6 gp120 (Q73372 32-508): as above
Sequence of cleaved HIV 89.6 gp140 (Q73372 32-681): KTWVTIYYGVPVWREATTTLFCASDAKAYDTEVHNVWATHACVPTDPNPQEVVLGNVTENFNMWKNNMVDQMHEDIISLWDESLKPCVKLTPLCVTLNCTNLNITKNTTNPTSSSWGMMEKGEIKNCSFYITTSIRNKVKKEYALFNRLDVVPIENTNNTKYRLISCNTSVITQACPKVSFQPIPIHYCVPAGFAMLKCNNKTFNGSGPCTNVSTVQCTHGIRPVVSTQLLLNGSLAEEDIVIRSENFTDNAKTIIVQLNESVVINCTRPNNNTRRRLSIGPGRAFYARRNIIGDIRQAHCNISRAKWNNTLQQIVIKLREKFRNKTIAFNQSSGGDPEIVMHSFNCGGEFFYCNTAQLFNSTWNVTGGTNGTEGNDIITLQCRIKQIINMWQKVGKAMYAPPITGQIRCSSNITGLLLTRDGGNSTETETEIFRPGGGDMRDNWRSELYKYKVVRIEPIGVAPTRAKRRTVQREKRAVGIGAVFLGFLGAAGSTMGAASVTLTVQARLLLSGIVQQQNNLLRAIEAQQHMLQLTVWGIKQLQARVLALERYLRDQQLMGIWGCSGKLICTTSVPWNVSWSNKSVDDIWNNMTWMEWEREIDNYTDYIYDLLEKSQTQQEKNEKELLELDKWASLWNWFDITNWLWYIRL
Sequence of HIV 89.6 gp140 (Q73372 32-681): as above
Sequence of T8-gp120 (HIV 89.6 gp120) (Q73372 32-508): as the sequence (Q73372 32-508) above
Sequence of HIV-1 89.6 gp120 (Q73372 32-508): as above

## enfuvirtide
Cleaved HIV 89.6 gp140
  Rm (maximal binding at equilibrium): 35 RU
  binding to cleaved gp140 (in words): Low level binding
[1]; SPR
  binding to sCD4-gp140 surface (in words): much higher binding; also recorded: bound specifically
[1]; [4]
  Kd: 1700 nM
[1]; cleaved gp140 after sCD4
  kd (off-rate): 0.0056 s⁻¹
[1]; sCD4-gp140 complexes, without CCR5-D1, read-out: Kd
  Kd: 700 nM
[1]; sCD4-gp140 vs gp41
  Keq stronger than for recombinant gp41: 10 fold
[1]; with sCD4
  Rm (maximal binding at equilibrium): 320 RU
[1]; with vs without sCD4
  increase of Rm by soluble CD4: ~10 fold
[2]
  binding to T8-gp140 surface (in words): near background binding
[3]
  binding to gp120 on T8 mab surface (in words): neither HR-2 peptide bound
Recombinant ADA gp41; SPR
  binding to immobilized gp41 (in words): bound well
Recombinant ADA gp41; [4]
  Kd: 26700 nM
HIV-1 Env 89.6 gp120
  Kd: 820 nM
HIV-1 Env 89.6 gp120; biphasic binding
  faster component of the dissociation phase: 0.023 s⁻¹
HIV-1 Env 89.6 gp120; biphasic binding, predominant
  slower component of the dissociation phase: 0.001 s⁻¹
HIV-1 Env 89.6 gp120; peptide 50 μg/ml
  binding to gp120 bound to CD4 or A32 (in words): specific induction of DP178 binding; also recorded: Marked induction
  binding to gp120 bound to mAb T8 (in words): no differences were observed
89.6 gp120; +A32
  binding higher than expected due to mass effect only: 3 fold
89.6 gp120; [5]
  faster off-rate: 0.020 s⁻¹
  slower off-rate: 0.0016 s⁻¹
89.6 gp120; gp120 pre-incubated with A32 (+A32)
  binding signal of A32-gp120 over peptide surface: ~400 RU
HIV-1 89.6 gp120
  band density of precipitated gp120: 1.0 ODunits/mm^2
HIV 89.6 gp140
  immunoprecipitation of gp41 and gp140 (in words): constitutively immunoprecipitated
